Source: patent US20260335251A1, “RED BLOOD CELL-HITCHHIKING IONIC LIQUID COATED NANOPARTICLES FOR CROSSING THE BLOOD BRAIN BARRIER” (University of Mississippi, priority 2022, published 2026)
“Also recorded” adds a separate entry of the source.

Tests used:
[1] = Quantitative encapsulation of ABC (1H NMR); type: physicochemical; settings: for ABC encapsulated: ~1 mg/mL NPs, from an added 74.1 μg/mL, quantitative 1H NMR
Experimental: Quantitative encapsulation of ABC (^1H NMR): PLGA and CA2HA 1:2 PLGA NPs were synthesized in deuterium oxide as described previously, and then resuspended to 500 μL (2 mg/mL) to quantitatively measure composition of the IL coating on the surface of the PLGA NPs with 20 μL Tetramethylsilane (TMS) internal quantification standard: ^1H NMR (400 MHz, D2O) δ 6.85 (dt, J=15.8, 7.0 Hz, 27H), 5.85 (dt, J=15.7, 1.5 Hz, 28H), 4.78 (d, J=1.3 Hz, 7140H), 4.09-4.02 (m, 27H), 3.81-3.71 (m, 21H), 3.64 (dd, J=11.8, 4.5 Hz, 45H), 3.60-3.47 (m, 73H), 3.25 (s, 136H), 2.72 (d, J=1.3 Hz, 14964H), 2.19 (qd, J=7.2, 1.6 Hz, 69H), 1.56-1.46 (m, 47H), 0.91 (t, J=7.4 Hz, 96H), 0.00 (s, 12H).
To break open the NPs, bare PLGA NPs and IL-PLGA NPs were first sonicated at 60° C. for 30 minutes to destroy the outer IL coating integrity, evidenced by a phase separation of cloudiness in the IL-PLGA NPs. To next dissociate the IL coating from the polymer core, all particles were vortexed at 25° C. on the highest setting for 10 minutes (in 2-minute intervals). The particles were then stored at −80° C. for 2 minutes to protect the ABC drug while inducing a bulk phase separation, and then vortexed at the highest setting for 2 min at 25° C. Lastly, to extrude the abacavir from the polymer core, all NPs were 30 kDa MWCO centrifuge-filtered for 1 hour at 4500 RPM at 40° C. Filtrate smaller than 30 kDa was collected at the bottom of the tube and stored at −20° C., concentrated (2×) with D2O and evaluated for presence of drug by ^1H NMR at 400 MHz at the highest scan rate (proton64).
As the appearance of drug peaks were very small compared to the IL, 2 μL of TMS was then used in particular to obtain a relative understanding of the size of the small emerging peaks. […] Representation of encapsulated ABC dose was then calculated: • 0.002 mL TMS (0.648 g/mL)=0.0013 g TMS • 0.0013 g TMS/88.22 g/mol TMS=0.0000146 mol TMS • 0.0000146 mol TMS (~0.03 integral ratio, 8.5 ppm & 0 ppm peak) ~4.38×10^−7 mol ABC • 4.38× 10-7 mol ABC (286.3 g/mol ABC) ~ (0.000125 g ABC/2) (ug total ~1 mg/mL) ~62.7 μg/mL ABC encapsulated

[2] = test system: HIV-1BaL; assay: HIV-1 replication in human PBMCs (p24 antigen ELISA); type: cell-based, HIV-1 (in human PBMCs); settings: days 3, 7, 10 post-infection; ABC alone or in NPs p<0.0001; empty IL-coated NPs p=0.04
Experimental: HIV Expression and Cytotoxicity: 3 independent batches of bare and CA2HA 1:2-coated PLGA NPs were prepared with abacavir (ABC) as above but in sterile Milli-Q water and re-suspended to 1 mg/ml with sterile 1×PBS pH 7.4. As ~60 μg/mL of drug was estimated by quantitative NMR, PBMC cells were stimulated with 10 μg/ml of PHA for 4 days. Stimulated PBMC cells were harvested at 400×g, RT for 10 min. The cells at 2×10^6 cells/mL were used for each experimental condition and infected with 1 ng/ml of HIV-1 Bal+ in presence of 3 ng/ml of IL-2 and 2 μg/ml of polybrene. PBMC cells were treated in the absence or presence of nanoparticles at 10 µM final concentration. […] The cell viability was determined by trypan blue at each harvesting day and an aliquot of condition media was saved for further analysis on p24 antigen assay. […] The p24 antigen assay was performed according to manufacture protocol on experimental condition media collected on 3, 7, 10 days post HIV-1 infection for quantification of HIV-1.
To assess the bioactivity of ART when encapsulated inside PLGA & IL-PLGA NPs, HIV-1 replication was assessed in human peripheral blood mononuclear cells (PBMCs) that were mock-infected or were infected with HIV-1BaL (1 ng/ml) for 10 days. […] Concentration of the HIV-1 capsid protein (p24, ng/ml) was assessed on days 3-, 7-, and 10 post-infection by enzyme-linked immunosorbent assay (ELISA) (FIG. 7).

[3] = Abacavir detection in brain regions (1H-NMR); type: in vivo, Sprague-Dawley rat; settings: 6 h; IL-PLGA NPs with 60 μg/mL ABC, intra-carotid; n=3/group
Experimental: Abacavir Detection in the Brain: In parallel with DiD-NP injections, Sprague-Dawley rats injected with IL-PLGA NPs (either without cargo or with 60 μg/mL ABC, n=3) were sacrificed at 6 hours post-injection, and whole organs were processed, and frozen post-mortem as described above in Biodistribution. In order to assess to areas of biodistribution of abacavir within the brain, the following regions were sliced and homogenized in a 1:1 mixture of 1×PBS (pH 7.4) and Acetonitrile constituting a total homogenate volume of 500 μL per sample: striatum, midbrain, interbrain, cerebellum, hypothalamus, cerebral cortex, & hippocampus. […] A range of 500-600 μL of liquid filtrate was recovered across all samples, which were all delivered into clean NMR tubes and topped 10% (v/v) with D2O to be evaluated for presence of drug by ^1H NMR at 400 MHz with 90% H2O/10% D2O water suppression.
Once biodistribution was determined with DiD, a new set of healthy, 8-week-old, female, Sprague Dawley rats with in-dwelling carotid catheters received IV infusions (under the same conditions) with either empty, or ABC-encapsulated, IL-coated PLGA NPs (n=3/group). Sites of regional distribution of abacavir cargo were evaluated within the brain (at the same 6-hour endpoint). […]

[4] = test system: red blood cells; assay: Red blood cell hitchhiking of nanoparticles coated with the ionic liquid; type: cell-based; settings: nanoparticles coated with this ionic liquid
[5] = test system: microglia, astrocytes, endothelial cells in brain; assay: Confocal/widefield immunofluorescence of brain sections (cellular localization); type: in vivo, Sprague-Dawley rat; settings: Iba-1, GFAP, von Willebrand factor
Experimental: Confocal Fluorescence: Perfused and cryopreserved rat brains were sectioned using a microtome (Leica Biosystems, #CM3050S) at 20-micron thickness. The slides were washed twice with 1×PBS and permeabilized (with 0.1% Triton-X, 0.1% BSA in PBS) for 30 min at 25° C. The permeabilized slides were blocked (1% BSA, 1% normal goat serum in PBS) for an additional 30 min at 25° C. and followed by probing with primary rabbit-anti-IBal (1:200 dilution) or […] (1:250 dilution) for 90 min at 25° C. At the end of the incubation, the slides were washed 3x with PBS and followed by incubation with secondary antibodies (Texas Red Goat-anti Rabbit, 1:500 for IBa1 and Alexa 488 goat anti-mouse, 1:500 for GFP), 1 hr at 25° C. To stain cellular nuclei, Hoechst stain was used at 1:10000 dilution. All dilutions represented as (vol/vol). The slides were washed 3× with 1×PBS and mounted with antifade media and kept at 4° C. for further analysis with confocal microscopy. […]
To both qualitatively and quantitatively confirm IL-PLGA NP selectivity for cells comprising the HIV reservoir, brain sections (40 μm) collected from rats used above were co-labeled for protein markers of astrocytes (GFAP; FIG. 3B) and microglia (Iba-1; FIG. 3C) with a Hoechst nuclear counterstain (FIG. 3A). […]

| SMILES | Red blood cell hitchhiking [4] | other results |
| --- | --- | --- |
| Nc1nc(NC2CC2)c2ncn([C@H]3C=C[C@@H](CO)C3)c2n1 [ABC, abacavir] | – | Encapsulation efficiency (EE) of ABC ([1]; ABC 2%, estimated by quantitative 1H NMR): ~ 84.6%; ABC encapsulated [1]: ~ 62.7 μg/mL; ABC encapsulated ([1]; listed as abacavir (ABC)): ~ 60 μg/mL; HIV-1 viral replication (p24) vs HIV-infected cells [2]: significantly attenuated viral replication; Abacavir regional brain accumulation [3]: accumulate most greatly in the cerebellum, interbrain, striatum, and midbrain regions; also recorded: lesser (but considerable) delivery to the hippocampus, cerebral cortex, and hypothalamus regions |
| CCC/C=C/C(=O)O [CA2HA 1:1, Choline 2-Hexenoate 1:1] | successfully hitchhike red blood cells | – |
| CCC/C=C/C(=O)O [CA2HA 1:2, Choline 2-Hexenoate 1:2] | – | Cellular localization in brain [5]: colocalizes with HIV reservoir cells |
| CC/C=C/CC(=O)O [CA3HA 1:1, Choline 3-Hexenoate 1:1] | successfully hitchhike red blood cells | – |
| CCC/C(C)=C/C(=O)O [CA3ME2HA 1:1, Choline Trans-3-Methyl-Trans-2-Hexenoate 1:1] | successfully hitchhike red blood cells | – |
| CC/C(C)=C/C(=O)O [CA3ME2PE 1:1, Choline Trans-3-Methyl-Trans-2-Pentenoate 1:1] | successfully hitchhike red blood cells | – |
| CC/C=C(\C)C(=O)O [CAGAS 1:2, Choline trans-2-Methyl-2-Pentenoate 1:2] | successfully hitchhike red blood cells | – |
| CCCCCCC(=O)O [CAHPA 1:1, Choline Heptanoate 1:1] | successfully hitchhike red blood cells | – |
